Data published in PMC12528727 (Nature Communications, 2025).
Where no end group is shown, it is not given here.

Key:
[1] = test system: Candida albicans ATCC10231; assay: Antifungal activity assay at 128 µM; format: cell-based; details: 128 µM peptide; growth curves (Supplementary Fig. 11)
NIH/3T3 cells = assay: Cytotoxicity assay; format: cell-based, murine; details: 128 µM peptide, 24 h, CCK-8, absorbance 450 nm, n = 3
Bacillus subtilis WB600 = assay: Antibacterial activity screen at 128 µM; details: 128 µM peptide
[2] = test system: Micrococcus luteus ATCC4698; assay: Antibacterial activity screen at 128 µM; details: 128 µM peptide
E. coli z44 = details: two-fold dilutions 128 µM to 1 µM; CaMHB, 37 °C, 16 h, OD600; n = 3
S. aureus 09057 = details: two-fold dilutions 128 µM to 1 µM; CaMHB, 37 °C, 16 h, OD600; n = 3
[3] = ABTS+ radical scavenging assay; format: biochemical; details: 1 mg/mL c_AMPs

## CLCGGKGKKLGKG [C4]
[1]
  time for which growth of C. albicans ATCC10231 was inhibited post treatment: up to 2 h

## GKGAKKGLKGLKG [B3]
NIH/3T3 cells
  cytotoxicity rate: 6.97%

## GLCGKGGKCCCGC [C1]
Bacillus subtilis WB600
  effect on B. subtilis WB600: negatively impacted
[2]
  inhibition of M. luteus ATCC4698 growth: completely inhibit

## IRPWRKPRWPWKR [D2]
E. coli z44
  minimum inhibitory concentration (MIC), E. coli z44: 8 µM
S. aureus 09057
  MIC, S. aureus 09057: 32 µM

## KKGLGGKLLACKG [A3]
Bacillus subtilis WB600; growth curves (Supplementary Fig. 11), no inhibition at 16 h
  time for which growth of B. subtilis WB600 was halted post treatment: up to 3 h
[2]
  inhibition of M. luteus ATCC4698 growth: completely inhibit
[3]
  ABTS^+ free radical scavenging rate: ≥ 90%

## KKPRPWPWKRRKK [D4]
[3]
  ABTS^+ free radical scavenging rate: 72%

## KLKGLLGGKKKLK [A1]
[2]
  inhibition of M. luteus ATCC4698 growth: completely inhibit
